From ChEMBL document CHEMBL5291721, “A preclinical secondary pharmacology resource illuminates target-adverse drug reaction associations of marketed drugs” (Nat Commun, 2023)

Key:
[1] = target: Gamma-aminobutyric acid receptor subunit alpha-1/alpha-2/beta-2/gamma-2 (Homo sapiens, UniProt P14867+P18507+P47869+P47870); type: functional, cell-based
[2] = target: Sodium channel protein type 5 subunit alpha (Homo sapiens, UniProt Q14524); type: functional, cell-based
[3] = target: T1, Corticotropin-releasing factor receptor 2 (Homo sapiens, UniProt Q13324)
T1 sequence (Q13324 whole entry): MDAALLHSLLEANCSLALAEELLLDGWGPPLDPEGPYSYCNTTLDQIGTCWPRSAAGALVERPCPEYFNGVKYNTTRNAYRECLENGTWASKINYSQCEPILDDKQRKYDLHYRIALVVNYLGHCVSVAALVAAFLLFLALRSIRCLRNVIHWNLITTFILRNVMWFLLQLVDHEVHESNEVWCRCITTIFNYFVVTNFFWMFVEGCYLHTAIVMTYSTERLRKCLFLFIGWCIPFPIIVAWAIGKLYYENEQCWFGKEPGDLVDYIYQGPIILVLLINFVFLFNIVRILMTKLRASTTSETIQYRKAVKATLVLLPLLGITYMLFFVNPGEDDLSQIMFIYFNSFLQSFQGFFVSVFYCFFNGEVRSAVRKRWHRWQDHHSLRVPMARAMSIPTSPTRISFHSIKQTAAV

[4] = target: T2, Endothelin receptor type B (Homo sapiens, UniProt P24530)
T2 sequence (P24530 whole entry): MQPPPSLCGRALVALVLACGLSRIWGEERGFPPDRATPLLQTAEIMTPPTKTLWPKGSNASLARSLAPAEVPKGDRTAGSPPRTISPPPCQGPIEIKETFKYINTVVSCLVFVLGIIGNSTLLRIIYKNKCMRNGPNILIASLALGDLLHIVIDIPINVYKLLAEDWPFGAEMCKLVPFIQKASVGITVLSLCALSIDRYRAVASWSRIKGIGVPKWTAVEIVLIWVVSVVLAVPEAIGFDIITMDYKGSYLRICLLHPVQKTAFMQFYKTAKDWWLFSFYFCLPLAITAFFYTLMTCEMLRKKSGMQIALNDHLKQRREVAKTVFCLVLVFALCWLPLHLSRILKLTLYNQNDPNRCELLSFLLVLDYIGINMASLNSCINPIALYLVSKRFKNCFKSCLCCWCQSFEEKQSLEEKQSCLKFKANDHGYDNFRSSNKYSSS

[5] = target: Beta-3 adrenergic receptor (Homo sapiens, UniProt P13945)
[6] = target: T3, Neuropeptide Y receptor type 2 (Homo sapiens, UniProt P49146)
T3 sequence (P49146 whole entry): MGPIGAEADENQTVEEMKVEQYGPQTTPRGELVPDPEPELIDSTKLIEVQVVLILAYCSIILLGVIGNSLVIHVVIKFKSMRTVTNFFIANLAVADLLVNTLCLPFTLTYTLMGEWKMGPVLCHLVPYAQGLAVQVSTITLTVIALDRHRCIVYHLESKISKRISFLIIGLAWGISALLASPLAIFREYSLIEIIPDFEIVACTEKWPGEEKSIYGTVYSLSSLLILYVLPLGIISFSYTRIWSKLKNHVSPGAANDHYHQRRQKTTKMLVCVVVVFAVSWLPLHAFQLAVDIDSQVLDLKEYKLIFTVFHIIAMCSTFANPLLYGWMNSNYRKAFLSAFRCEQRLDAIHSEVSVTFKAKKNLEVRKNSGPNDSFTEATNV

[7] = target: T4, B1 bradykinin receptor (Homo sapiens, UniProt P46663)
T4 sequence (P46663 whole entry): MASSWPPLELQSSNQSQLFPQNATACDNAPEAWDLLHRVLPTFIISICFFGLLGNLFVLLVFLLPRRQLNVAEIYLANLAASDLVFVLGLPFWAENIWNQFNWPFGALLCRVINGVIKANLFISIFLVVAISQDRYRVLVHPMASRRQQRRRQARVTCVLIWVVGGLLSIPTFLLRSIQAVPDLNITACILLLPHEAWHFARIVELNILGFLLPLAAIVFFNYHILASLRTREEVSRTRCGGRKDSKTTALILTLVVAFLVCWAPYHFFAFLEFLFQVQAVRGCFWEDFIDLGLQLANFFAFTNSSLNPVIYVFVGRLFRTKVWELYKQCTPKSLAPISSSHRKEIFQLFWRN

[8] = target: 5-hydroxytryptamine receptor 2B (Homo sapiens, UniProt P41595)
[9] = target: Glucagon receptor (Homo sapiens, UniProt P47871)
[10] = target: Histamine H2 receptor (Homo sapiens, UniProt P25021)
[11] = target: T5, Muscarinic acetylcholine receptor M2 (Homo sapiens, UniProt P08172)
T5 sequence (P08172 whole entry): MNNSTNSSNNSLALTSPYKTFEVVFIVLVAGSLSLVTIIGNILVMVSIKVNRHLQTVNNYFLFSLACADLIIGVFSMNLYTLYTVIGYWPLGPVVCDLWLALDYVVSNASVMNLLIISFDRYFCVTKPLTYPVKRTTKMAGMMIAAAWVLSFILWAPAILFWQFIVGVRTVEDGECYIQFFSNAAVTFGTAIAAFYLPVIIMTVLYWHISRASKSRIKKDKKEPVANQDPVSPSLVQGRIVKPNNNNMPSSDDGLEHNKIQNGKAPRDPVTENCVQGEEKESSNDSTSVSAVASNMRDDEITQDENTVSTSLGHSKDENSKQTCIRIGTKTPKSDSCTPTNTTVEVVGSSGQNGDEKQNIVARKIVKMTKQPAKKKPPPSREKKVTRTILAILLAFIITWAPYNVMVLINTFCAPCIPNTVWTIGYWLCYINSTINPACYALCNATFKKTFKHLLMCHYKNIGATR

[12] = target: Estrogen receptor beta (Homo sapiens, UniProt Q92731)
[13] = target: Substance-P receptor (Homo sapiens, UniProt P25103)
Further: assay procedure not described here.

5-hydroxytryptamine receptor 2B, sequence (P41595 whole entry): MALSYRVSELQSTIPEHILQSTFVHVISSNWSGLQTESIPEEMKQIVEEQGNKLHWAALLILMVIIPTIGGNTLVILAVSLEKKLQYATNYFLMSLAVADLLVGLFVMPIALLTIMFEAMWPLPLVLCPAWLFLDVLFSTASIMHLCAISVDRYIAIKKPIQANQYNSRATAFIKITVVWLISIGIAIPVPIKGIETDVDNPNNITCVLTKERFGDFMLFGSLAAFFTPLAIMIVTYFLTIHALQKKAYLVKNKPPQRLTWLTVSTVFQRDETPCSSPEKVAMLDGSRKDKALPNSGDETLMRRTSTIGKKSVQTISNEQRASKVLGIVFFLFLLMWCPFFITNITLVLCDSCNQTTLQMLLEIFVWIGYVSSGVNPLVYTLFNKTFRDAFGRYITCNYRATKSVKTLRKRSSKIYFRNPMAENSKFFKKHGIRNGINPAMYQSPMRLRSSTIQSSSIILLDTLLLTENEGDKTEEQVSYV
Sodium channel protein type 5 subunit alpha, sequence (Q14524 whole entry): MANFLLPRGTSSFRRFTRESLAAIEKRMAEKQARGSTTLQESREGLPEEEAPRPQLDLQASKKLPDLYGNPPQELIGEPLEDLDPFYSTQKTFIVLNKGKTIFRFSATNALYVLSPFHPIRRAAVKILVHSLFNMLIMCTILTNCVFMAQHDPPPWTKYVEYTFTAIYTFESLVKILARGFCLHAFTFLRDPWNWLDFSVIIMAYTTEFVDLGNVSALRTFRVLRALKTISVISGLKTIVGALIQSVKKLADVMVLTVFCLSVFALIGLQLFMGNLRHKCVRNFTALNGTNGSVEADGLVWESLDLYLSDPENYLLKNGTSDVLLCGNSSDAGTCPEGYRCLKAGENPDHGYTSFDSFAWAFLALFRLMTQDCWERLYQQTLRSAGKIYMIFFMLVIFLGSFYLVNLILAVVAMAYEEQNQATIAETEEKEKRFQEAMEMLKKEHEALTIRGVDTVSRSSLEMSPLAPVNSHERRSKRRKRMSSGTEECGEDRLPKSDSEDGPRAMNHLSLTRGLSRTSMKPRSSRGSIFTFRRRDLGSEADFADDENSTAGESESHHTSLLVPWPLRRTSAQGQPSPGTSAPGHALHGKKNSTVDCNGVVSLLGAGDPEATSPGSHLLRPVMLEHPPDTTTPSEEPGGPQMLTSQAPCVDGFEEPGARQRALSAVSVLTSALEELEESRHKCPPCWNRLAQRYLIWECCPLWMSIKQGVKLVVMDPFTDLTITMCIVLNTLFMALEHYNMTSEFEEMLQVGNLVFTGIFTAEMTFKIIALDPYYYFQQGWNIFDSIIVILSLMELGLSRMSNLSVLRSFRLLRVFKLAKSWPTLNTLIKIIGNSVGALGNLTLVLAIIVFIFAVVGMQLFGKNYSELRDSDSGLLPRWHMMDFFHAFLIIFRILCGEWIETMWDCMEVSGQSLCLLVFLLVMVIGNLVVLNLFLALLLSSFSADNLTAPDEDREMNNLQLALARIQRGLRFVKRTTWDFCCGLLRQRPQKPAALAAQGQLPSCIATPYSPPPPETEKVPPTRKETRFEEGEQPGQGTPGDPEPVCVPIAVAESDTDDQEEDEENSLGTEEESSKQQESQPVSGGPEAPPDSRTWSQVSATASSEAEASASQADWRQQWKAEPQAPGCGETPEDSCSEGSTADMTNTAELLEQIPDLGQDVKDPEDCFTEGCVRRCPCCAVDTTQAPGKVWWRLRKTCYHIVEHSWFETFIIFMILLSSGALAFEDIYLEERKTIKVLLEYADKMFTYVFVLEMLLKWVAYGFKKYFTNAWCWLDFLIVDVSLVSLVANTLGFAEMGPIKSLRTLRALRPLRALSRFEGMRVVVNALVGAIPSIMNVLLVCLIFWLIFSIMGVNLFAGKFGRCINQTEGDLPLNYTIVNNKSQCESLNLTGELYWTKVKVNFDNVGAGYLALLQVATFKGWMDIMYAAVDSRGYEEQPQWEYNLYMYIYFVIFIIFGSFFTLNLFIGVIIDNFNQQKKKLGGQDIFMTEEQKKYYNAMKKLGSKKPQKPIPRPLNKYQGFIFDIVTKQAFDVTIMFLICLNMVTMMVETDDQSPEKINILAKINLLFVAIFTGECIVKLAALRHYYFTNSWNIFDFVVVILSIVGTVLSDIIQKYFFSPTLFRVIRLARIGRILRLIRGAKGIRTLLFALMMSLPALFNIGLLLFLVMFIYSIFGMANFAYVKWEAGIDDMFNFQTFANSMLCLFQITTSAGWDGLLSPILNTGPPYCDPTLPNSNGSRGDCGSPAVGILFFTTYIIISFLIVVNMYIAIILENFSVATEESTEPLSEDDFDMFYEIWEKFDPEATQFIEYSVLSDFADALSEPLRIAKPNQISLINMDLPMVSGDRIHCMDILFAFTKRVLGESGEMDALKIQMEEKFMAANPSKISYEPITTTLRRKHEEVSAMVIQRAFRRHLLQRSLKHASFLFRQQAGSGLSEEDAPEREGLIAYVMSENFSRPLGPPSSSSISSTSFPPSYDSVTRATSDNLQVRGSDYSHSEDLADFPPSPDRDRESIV
Gamma-aminobutyric acid receptor subunit alpha-1/alpha-2/beta-2/gamma-2, sequence (P14867 whole entry): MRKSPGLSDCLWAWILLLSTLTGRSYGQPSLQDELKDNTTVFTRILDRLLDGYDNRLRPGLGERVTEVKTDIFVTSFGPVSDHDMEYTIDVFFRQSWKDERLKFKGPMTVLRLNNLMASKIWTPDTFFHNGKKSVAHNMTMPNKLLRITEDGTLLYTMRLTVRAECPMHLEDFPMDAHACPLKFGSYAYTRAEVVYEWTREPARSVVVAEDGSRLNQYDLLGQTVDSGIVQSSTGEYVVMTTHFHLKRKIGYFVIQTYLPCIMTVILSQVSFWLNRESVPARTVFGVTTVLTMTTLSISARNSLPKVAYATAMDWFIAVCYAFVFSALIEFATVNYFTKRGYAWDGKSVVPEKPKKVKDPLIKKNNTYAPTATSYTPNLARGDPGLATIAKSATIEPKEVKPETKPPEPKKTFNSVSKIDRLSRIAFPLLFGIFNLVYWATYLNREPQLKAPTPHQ
Gamma-aminobutyric acid receptor subunit alpha-1/alpha-2/beta-2/gamma-2, sequence (P47870 whole entry): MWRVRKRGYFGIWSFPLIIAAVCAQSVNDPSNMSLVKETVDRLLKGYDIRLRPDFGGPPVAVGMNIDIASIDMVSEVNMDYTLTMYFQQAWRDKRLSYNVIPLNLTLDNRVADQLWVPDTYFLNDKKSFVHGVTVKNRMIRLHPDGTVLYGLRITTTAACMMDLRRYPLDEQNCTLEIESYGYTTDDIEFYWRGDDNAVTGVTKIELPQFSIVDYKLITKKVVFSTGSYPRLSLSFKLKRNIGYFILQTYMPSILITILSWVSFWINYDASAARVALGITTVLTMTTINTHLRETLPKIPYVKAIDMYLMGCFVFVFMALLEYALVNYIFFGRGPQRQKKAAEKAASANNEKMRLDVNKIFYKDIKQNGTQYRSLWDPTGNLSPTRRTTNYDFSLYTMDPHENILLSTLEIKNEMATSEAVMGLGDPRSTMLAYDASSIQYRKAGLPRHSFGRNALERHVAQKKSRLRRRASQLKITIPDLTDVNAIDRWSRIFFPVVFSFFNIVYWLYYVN
Gamma-aminobutyric acid receptor subunit alpha-1/alpha-2/beta-2/gamma-2, sequence (P18507 whole entry): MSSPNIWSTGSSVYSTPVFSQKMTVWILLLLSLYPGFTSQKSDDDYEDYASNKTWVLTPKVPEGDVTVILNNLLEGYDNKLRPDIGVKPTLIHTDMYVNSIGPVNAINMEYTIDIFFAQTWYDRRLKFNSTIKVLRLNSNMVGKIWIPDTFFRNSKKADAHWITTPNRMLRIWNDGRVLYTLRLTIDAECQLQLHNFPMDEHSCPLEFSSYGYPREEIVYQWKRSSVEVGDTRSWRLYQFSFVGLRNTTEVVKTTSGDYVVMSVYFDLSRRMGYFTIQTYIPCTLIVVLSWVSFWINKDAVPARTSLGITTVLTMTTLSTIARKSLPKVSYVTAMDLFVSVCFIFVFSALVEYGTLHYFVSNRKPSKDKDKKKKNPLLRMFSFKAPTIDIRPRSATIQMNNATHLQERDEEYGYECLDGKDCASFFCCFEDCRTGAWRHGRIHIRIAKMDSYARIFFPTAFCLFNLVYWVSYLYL
Gamma-aminobutyric acid receptor subunit alpha-1/alpha-2/beta-2/gamma-2, sequence (P47869 whole entry): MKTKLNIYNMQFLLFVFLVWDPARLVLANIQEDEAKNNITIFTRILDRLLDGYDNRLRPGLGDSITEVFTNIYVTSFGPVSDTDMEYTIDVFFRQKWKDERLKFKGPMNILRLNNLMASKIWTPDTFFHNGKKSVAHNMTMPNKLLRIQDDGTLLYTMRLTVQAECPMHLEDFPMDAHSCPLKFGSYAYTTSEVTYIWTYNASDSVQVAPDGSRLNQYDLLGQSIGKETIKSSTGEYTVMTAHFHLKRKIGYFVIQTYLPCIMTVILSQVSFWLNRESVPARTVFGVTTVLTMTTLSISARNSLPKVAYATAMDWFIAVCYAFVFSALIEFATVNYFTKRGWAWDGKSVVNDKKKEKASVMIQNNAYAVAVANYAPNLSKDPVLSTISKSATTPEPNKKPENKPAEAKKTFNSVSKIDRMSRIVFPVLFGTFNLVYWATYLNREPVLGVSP
Glucagon receptor, sequence (P47871 whole entry): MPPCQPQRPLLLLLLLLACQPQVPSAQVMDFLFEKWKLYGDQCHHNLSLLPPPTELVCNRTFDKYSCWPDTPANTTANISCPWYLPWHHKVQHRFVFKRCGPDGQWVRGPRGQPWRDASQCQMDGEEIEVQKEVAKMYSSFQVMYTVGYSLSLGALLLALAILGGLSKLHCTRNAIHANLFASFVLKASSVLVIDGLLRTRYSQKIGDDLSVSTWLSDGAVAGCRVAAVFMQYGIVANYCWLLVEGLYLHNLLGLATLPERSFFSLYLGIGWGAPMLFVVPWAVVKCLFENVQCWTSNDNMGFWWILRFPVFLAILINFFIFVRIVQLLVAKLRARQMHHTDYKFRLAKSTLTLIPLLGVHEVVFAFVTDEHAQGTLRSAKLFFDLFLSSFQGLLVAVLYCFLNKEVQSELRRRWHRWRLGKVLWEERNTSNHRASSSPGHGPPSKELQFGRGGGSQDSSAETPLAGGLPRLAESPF

With `CO[C@H]1C[C@H](O[C@H]2CC[C@@]3(C)[C@H](CC[C@@H]4[C@@H]3CC[C@]3(C)[C@@H](C5=CC(=O)OC5)[C@@H](OC(C)=O)C[C@]43O)C2)O[C@@H](C)[C@@H]1O` [OLEANDRIN] the AC50 [1] was > 30 µM.

With `O=c1[nH]c2ccccc2n1CCCN1CCN(C(c2ccccc2)c2ccccc2)CC1` [OXATOMIDE] the AC50 [1] was > 30 µM.

For `COc1cc2[nH]c(C)c(CCN3CCN(c4ccccc4)CC3)c2cc1OC` [OXYPERTINE], the AC50 [1] was > 30 µM.

With `Fc1ccc([C@@H]2CCNC[C@H]2COc2ccc3c(c2)OCO3)cc1` [PAROXETINE] the AC50 [2] was 25.4 µM, the AC50 [3] was > 30 µM and the AC50 [4] was > 30 µM. The AC50 [5] was > 30 µM, the AC50 [6] was > 30 µM and the AC50 [7] was > 30 µM. For the same molecule, the AC50 [8] was 11.9 µM and the AC50 [9] was > 30 µM.

With `c1ccc(C2(N3CCCCC3)CCCCC2)cc1` [PHENCYCLIDINE] the AC50 [1] was > 30 µM.

`COc1cc(C(=O)OCc2cccc(COC(=O)c3cc(OC)c(OC)c(OC)c3)n2)cc(OC)c1OC` [PIROZADIL] was tested, and the AC50 [1] was > 30 µM.

In the case of `CCC(=O)O[C@](Cc1ccccc1)(c1ccccc1)[C@H](C)CN(C)C` [PROPOXYPHENE], the AC50 [10] is reported as 4.95 µM, the AC50 [3] is reported as > 30 µM and the AC50 [4] is reported as > 30 µM. The AC50 [5] was > 30 µM, the AC50 [6] was > 30 µM and the AC50 [11] was > 10 µM. For the same molecule, the AC50 [12] was > 30 µM, the AC50 [7] was > 30 µM and the AC50 [8] was > 10 µM. The AC50 [13] was > 10 µM and the AC50 [9] was > 30 µM.

For `CCc1nc(N)nc(N)c1-c1ccc(Cl)cc1` [PYRIMETHAMINE], the AC50 [8] was > 10 µM.

For `O=c1c(O)c(-c2ccc(O)c(O)c2)oc2cc(O)cc(O)c12` [QUERCETIN], the AC50 [10] was > 10 µM, the AC50 [3] was > 30 µM and the AC50 [4] was > 30 µM. The AC50 [6] was > 30 µM, the AC50 [11] was > 10 µM and the AC50 [12] was > 30 µM. The AC50 [7] was > 30 µM, the AC50 [8] was 19.4 µM and the AC50 [9] was > 30 µM.

For `CCN1CCCC1CNC(=O)c1cc(S(=O)(=O)CC)ccc1OC` (stereo not drawn) [SULTOPRIDE], the AC50 [1] was > 30 µM.

For `CCOC(=O)[C@@H](N)Cc1ccc(-c2cc(O[C@H](c3ccc(Cl)cc3-n3ccc(C)n3)C(F)(F)F)nc(N)n2)cc1` [TELOTRISTAT ETHYL], the AC50 [2] was > 1 µM and the AC50 [1] was > 30 µM.

Work on `CCCCCCCC(=O)CC[C@@H]1[C@@H](C/C=C\CCCC(=O)OC(C)C)[C@@H](O)C[C@H]1O` [UNOPROSTONE ISOPROPYL] yielded an AC50 [2] of 27 µM.
